Source: US12435087B2, “Modulators of DCN-1 and methods of use thereof” (Cellarity, Inc., priority 2023, dated 2025)
Like-named read-outs stand apart in the source and are kept apart here.

Molecular target: DCN1 (DCUND1) protein PONY domain (Homo sapiens (Human), UniProt Q96GG9)
Experiment: TR-FRET assay (binding to DCN-1, displacement of FAM-labeled probe)
Text: (§1) The TR-FRET assay was designed following the Scott et al. protocol (Scott et al., Nat Chem Biol. 2017 August; 13(8): 850-857. doi:10.1038/nchembio.2386). The recombinant form of the DCN1 (DCUND1) protein PONY domain was produced using an E. coli expression system at Viva Biotech (China). The DCN1 protein was biotinylated (EZ sulfo-NHS-LC-biotin; Thermofisher) for labeling with streptavidin terbium (Tb) cryptate in the reaction. The probe was changed to a non-covalent DCN1 inhibitor labeled with carboxyfluorescein (FAM; Zhou et al., Nat Commun. 2017; 8: 1150. doi: 10.1038/s41467-017-01243-7). Buffer conditions were modified to enhance protein stability by exchanging Tween20 for TritonX and increasing NaCl to 200 mM. The compounds were screened against 5 nM DCN1 and 20 nM FAM-probe or 0.31 nM DCN1 and 900 nM total probe (100 nM FAM-labeled plus 800 nM unlabeled). The TR-FRET ratio between Tb-DCN1 and the FAM-labeled probe was measured in a 384-well opti-plate (Perkin Elmer) using a plate reader (BMG) at 1, 5, and 24 hrs after treatment with compound (final DMSO concentration of 0.1%). The ratio was normalized to the high (DCN1 and FAM-probe) and low (DCN1 and no probe) controls for a readout of % activity (=100*(x−low)/(high−low).
A TR-FRET assay was performed to evaluate the ability of the compounds to bind the DCN-1 protein.
as §1, with “850-857. Doi: 10.1038/nchembio.2386).” for “850-857. doi:10.1038/nchembio.2386).”, “the DCNI” for “the DCN1”, “1150. Doi:” for “1150. doi:”, “0.1%).” for “0.1%). The ratio was normalized to the high (DCN1 and FAM-probe) and low (DCN1 and no probe) controls for a readout of % activity (=100*(x−low)/(high−low).”

[1] = 24 hr after treatment with compound, read-out: TR FRET IC50 24 hr
[2] = TR FRET IC50 1 hr (nM), 1 hr after treatment with compound

Chain of DCN1 (DCUND1) protein PONY domain (Q96GG9 60-248): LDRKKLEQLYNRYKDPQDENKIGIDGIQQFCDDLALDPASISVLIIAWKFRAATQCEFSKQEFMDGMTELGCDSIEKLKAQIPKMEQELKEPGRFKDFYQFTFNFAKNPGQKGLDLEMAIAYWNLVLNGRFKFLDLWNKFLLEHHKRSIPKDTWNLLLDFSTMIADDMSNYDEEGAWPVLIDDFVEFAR

| Compound | IC50 [1] [nM] | IC50 [2] [nM] |
| --- | --- | --- |
| C=CC(=O)N(C)c1cccc([C@H]2c3cnn(-c4ccccc4)c3N(CC)C(=O)[C@@H]2NC(=O)c2cccc(C(F)(F)F)c2)c1 (racemic) [Compound I-74] | 1000 to 3000 | 1000 to 3000 |
| CCN1C(=O)[C@@H](NC(=O)c2cccc(C(F)(F)F)c2)[C@H](c2cc(NC(=O)/C=C/CN(C)C)ccc2F)c2cnn(-c3ccccc3)c21 (racemic) [Compound I-79] | 200 to 1000 | 1000 to 3000 |
| CCN1C(=O)[C@@H](NC(=O)c2cccc(C(F)(F)F)c2)[C@@H](c2cc(F)cc(NC(=O)/C=C/CN(C)C)c2)c2cnn(-c3ccccc3)c21 (racemic) [Compound I-85] | 1000 to 3000 | 1000 to 3000 |
| C=C(C)S(=O)(=O)Nc1cccc([C@H]2c3c(C)nn(-c4ccccc4)c3N(CC)C(=O)[C@@H]2NC(=O)c2cccc(C(F)(F)F)c2)c1 (racemic) [Compound I-88] | 1000 to 3000 | 1000 to 3000 |
| CCN1C(=O)[C@H](NC(=O)c2cccc(C(F)(F)F)c2)[C@@H](c2ccccc2-n2sccc2=O)c2cnn(-c3ccccc3)c21 (racemic) [Compound I-89, ˜{N}—[˜{rac}-(4˜{S},5˜{R})-7-ethyl-6-oxo-4-[2-(3-oxoisothiazol-2-yl)phenyl]-1-phenyl-4,5-dihydropyrazolo[3,4-b]pyridin-5-yl]-3-(trifluoromethyl)benzamide] | 1000 to 3000 | 1000 to 3000 |
| CCN1C(=O)[C@H](NC(=O)c2cccc(C(F)(F)F)c2)[C@@H](c2ccccc2N(C)C#N)c2cnn(-c3ccccc3)c21 (racemic) [Compound I-90, ˜{N}—[˜{rac}-(4˜{S},5˜{R})-4-[2-[cyano(methyl)amino]phenyl]-7-ethyl-6-oxo-1-phenyl-4,5-dihydropyrazolo[3,4-b]pyridin-5-yl]-3-(trifluoromethyl)benzamide] | 1000 to 3000 | 1000 to 3000 |
| Cc1nn(-c2ccccc2)c2c1[C@H](c1cccc(NC(=O)C3=CCC3)c1)[C@@H](NC(=O)c1cccc(C(F)(F)F)c1)C(=O)N2CCO (racemic) [Compound I-92, rac-N-((4R,5S)-4-(3-(cyclobut-1-ene-1-carboxamido)phenyl)-7-(2-hydroxyethyl)-3-methyl-6-oxo-1-phenyl-4,5,6,7-tetrahydro-1H-pyrazolo[3,4-b]pyridin-5-yl)-3-(trifluoromethyl)benzamide] | 1000 to 3000 | 1000 to 3000 |
| C=CC(=O)N(C)c1ccccc1[C@H]1c2cnn(-c3ccccc3)c2N(CC)C(=O)[C@@H]1NC(=O)c1cccc(C(F)(F)F)c1 (racemic) [Compound I-97, ˜{N}—[˜{rac}-(4˜{S},5˜{R})-7-ethyl-4-[2-[methyl(prop-2-enoyl)amino]phenyl]-6-oxo-1-phenyl-4,5-dihydropyrazolo[3,4-b]pyridin-5-yl]-3-(trifluoromethyl)benzamide] | 1000 to 3000 | 1000 to 3000 |
| CC#CC(=O)N(C)c1ccccc1[C@H]1c2cnn(-c3ccccc3)c2N(CC)C(=O)[C@@H]1NC(=O)c1cccc(C(F)(F)F)c1 (racemic) [Compound I-98, ˜{N}—[˜{rac}-(4˜{S},5˜{R})-4-[2-[but-2-ynoyl(methyl)amino]phenyl]-7-ethyl-6-oxo-1-phenyl-4,5-dihydropyrazolo[3,4-b]pyridin-5-yl]-3-(trifluoromethyl)benzamide] | 1000 to 3000 | 1000 to 3000 |
| CCN1C(=O)[C@H](NC(=O)c2cccc(C(F)(F)F)c2)[C@@H](c2cccc(N(C)C(=O)/C=C/C(F)(F)F)c2)c2cnn(-c3ccccc3)c21 (racemic) [Compound I-99] | 1000 to 3000 | 1000 to 3000 |
| CCN1C(=O)[C@@H](NC(=O)c2cccc(C(F)(F)F)c2)[C@H](c2ccccc2CNC(=O)C2=CCC2)c2cnn(-c3ccccc3)c21 (racemic) [Compound I-101] | 1000 to 3000 | 1000 to 3000 |
| CCN1C(=O)[C@@H](NC(=O)c2cccc(C(F)(F)F)c2)[C@H](c2cccc(CN(C)C#N)c2)c2cnn(-c3ccccc3)c21 (racemic) [Compound I-104] | 1000 to 3000 | 1000 to 3000 |
| CCN1C(=O)[C@@H](NC(=O)c2cccc(C(F)(F)F)c2)[C@@H](c2cc(NC(=O)/C=C/CN(C)C)ccc2F)c2cnn(-c3ccccc3)c21 (racemic) [Compound I-107] | 1000 to 3000 | 1000 to 3000 |
| C=CC(=O)NCc1cccc([C@@H]2c3cnn(-c4ccccc4)c3N(CC)C(=O)[C@H]2NC(=O)c2cccc(C(F)(F)F)c2)c1 (racemic) [Compound I-111] | 1000 to 3000 | 1000 to 3000 |
| C=CC(=O)NCc1ccccc1[C@@H]1c2cnn(-c3ccccc3)c2N(CC)C(=O)[C@H]1NC(=O)c1cccc(C(F)(F)F)c1 (racemic) [Compound I-113] | 1000 to 3000 | 1000 to 3000 |
| CCN1C(=O)[C@@H](NC(=O)c2cccc(C(F)(F)F)c2)[C@H](c2cccc(NC(=O)C3=C(C(=O)OC)CCC3)c2)c2c(C)nn(-c3ccccc3)c21 (racemic) [Compound I-117] | 1000 to 3000 | 1000 to 3000 |
| CCN1C(=O)[C@@H](NC(=O)c2cccc(C(F)(F)F)c2)[C@H](c2ccccc2CNC(=O)/C=C/CN(C)C)c2cnn(-c3ccccc3)c21 (racemic) [Compound I-120] | 1000 to 3000 | 1000 to 3000 |
| CCN1C(=O)[C@H](NC(=O)c2cccc(C(F)(F)F)c2)[C@@H](c2ccccc2NC#N)c2cnn(-c3ccccc3)c21 (racemic) [Compound I-122, ˜{N}—[˜{rac}-(4˜{S},5˜{R})-4-[2-(cyanoamino)phenyl]-7-ethyl-6-oxo-1-phenyl-4,5-dihydropyrazolo[3,4-b]pyridin-5-yl]-3-(trifluoromethyl)benzamide] | 1000 to 3000 | 1000 to 3000 |
| CCN1C(=O)[C@H](NC(=O)c2cccc(C(F)(F)F)c2)[C@@H](c2cccc(NC(=O)C3CCC3)c2)c2c(C)nn(-c3ccccc3)c21 (racemic) [Compound I-123] | 1000 to 3000 | 1000 to 3000 |
| CCN1C(=O)[C@H](NC(=O)c2cccc(C(F)(F)F)c2)[C@@H](c2cccc(NC(C)=O)c2)c2c(C)nn(-c3ccccc3)c21 (racemic) [Compound I-124] | 1000 to 3000 | 1000 to 3000 |
| CCN1C(=O)[C@@H](NC(=O)c2cccc(C(F)(F)F)c2)[C@H](c2cccc(CNC(=O)C3=CCC3)c2)c2cnn(-c3ccccc3)c21 (racemic) [Compound I-126] | 1000 to 3000 | 1000 to 3000 |
| C/C=C(/C)S(=O)(=O)Nc1cccc([C@H]2c3c(C)nn(-c4ccccc4)c3N(CC)C(=O)[C@@H]2NC(=O)c2cccc(C(F)(F)F)c2)c1 (racemic) [Compound I-127] | 1000 to 3000 | 1000 to 3000 |
| CCN1C(=O)[C@@H](NC(=O)c2cccc(C(F)(F)F)c2)[C@@H](c2ccc(F)c(NC(=O)/C=C/CN(C)C)c2)c2cnn(-c3ccccc3)c21 (racemic) [Compound I-129] | 1000 to 3000 | 1000 to 3000 |
| C/C=C/S(=O)(=O)Nc1cccc([C@H]2c3c(C)nn(-c4ccccc4)c3N(CC)C(=O)[C@@H]2NC(=O)c2cccc(C(F)(F)F)c2)c1 (racemic) [Compound I-131] | ≤ 200 | 200 to 1000 |
| CCN1C(=O)[C@H](NC(=O)c2cccc(C(F)(F)F)c2)[C@@H](c2cccc(NC(=O)C#CCN(C)C)c2)c2cnn(-c3ccccc3)c21 (racemic) [Compound I-132, rac-N-((4R,5S)-4-(3-(4-(dimethylamino)but-2-ynamido)phenyl)-7-ethyl-6-oxo-1-phenyl-4,5,6,7-tetrahydro-1H-pyrazolo[3,4-b]pyridin-5-yl)-3-(trifluoromethyl)benzamide] | 200 to 1000 | 200 to 1000 |
| CCN1C(=O)[C@@H](NC(=O)c2cccc(C(F)(F)F)c2)[C@H](c2cccc(CNC#N)c2)c2c(C)nn(-c3ccccc3)c21 (racemic) [Compound I-138] | 200 to 1000 | 200 to 1000 |
| CCN1C(=O)[C@H](NC(=O)c2cccc(C(F)(F)F)c2)[C@@H](c2cccc(NC(=O)C#CCN3CCOCC3)c2)c2c(C)nn(-c3ccccc3)c21 (racemic) [Compound I-139, rac-N-((4R,5S)-7-ethyl-3-methyl-4-(3-(4-morpholinobut-2-ynamido)phenyl)-6-oxo-1-phenyl-4,5,6,7-tetrahydro-1H-pyrazolo[3,4-b]pyridin-5-yl)-3-(trifluoromethyl)benzamide] | 200 to 1000 | 1000 to 3000 |
